Results reported in paper PMC8504577, “Evaluation of a Clinically Relevant Drug–Drug Interaction Between Rosuvastatin and Clopidogrel and the Risk of Hepatotoxicity” (Frontiers in Pharmacology, 2021).
pIC50: −log10 of the molar value. Read-outs that look alike come from different tables or passages of the source.

Key:
[1] = Plasma pharmacokinetic study in rats; conditions: for AUC0–12h: rat plasma
Protocol: For the plasma pharmacokinetic study, 16 rats were randomly assigned into four groups (n = 4, each group, groups I to IV) and received oral (p.o.) administrations as oral gavage of CP (27 mg/kg) or the same volume of vehicle control for 20 days. Then, the rats were made to fast overnight before dosing but with free access to water. On day 21, rats in group I were treated with a p.o. dose as oral gavage of CP at 27 mg/kg and a single intravenous (i.v.) dose of RSV at 5 mg/kg. Rats in group II were treated with a p.o. dose as oral gavage of vehicle control and a single i.v. dose of RSV at 5 mg/kg. Rats in group Ⅲ were treated with a p.o. dose as oral gavage of CP at 27 mg/kg and a p.o. dose as oral gavage of RSV at 5 mg/kg. Rats in group Ⅳ were treated with a p.o. dose as oral gavage of vehicle control and a p.o. dose as oral gavage of RSV at 5 mg/kg. Blood samples (0.15 ml) were collected at 0, 1, 2, 5, 15, 30, 60, 120, 180, 360, 480, 600, and 720 min after administration of the i.v. dose of the RSV group and at 0, 5, 30, 60, 120, 180, 360, 480, 600, and 720 min for the p.o. dose as oral gavage of the RSV group. After each sampling, a volume of 0.15 ml physiologic saline solutions was administered to sustain isotonic fluid balance. Plasma samples were harvested by using a centrifuge and then stored at −80°C until analysis by LC-MS/MS.
A Shimadzu LC-30AD liquid chromatography system (Shimadzu, Kyoto, Japan) and an API4000 triple quadruple tandem mass spectrometer (Applied Biosystems/Sciex, Framingham, MA, United States) coupled with an ESI source was used for the LC-MS/MS analysis of in vivo samples. The separation was carried out on an Agilent Extend C18 column (1.8 µm, 4.6 mm × 30 mm, Agilent Technologies). The mobile phase consisting of acetonitrile (A) and water (B: 1 mM ammonium acetate and 1% (V/V) formic acid). […] The flow rate was 1 ml/min and the gradient elution method was as follows: 0.01 min (10% A)-0.4 min (10% A), 0.8 min (95% A)-2.0 min (95% A), and 2.3 min (10% A)-2.5 min (stop).
(§1) Phoenix WinNonlin® 7.1 (Pharsight Corporation, Mountain View, CA, United States) was used to calculate the pharmacokinetic parameters by the noncompartmental method. IC50 values were obtained by a computer-generated nonlinear least squares fit using GraphPad Prism 8.1 (GraphPad Software, San Diego, CA, United States). Statistical analysis was performed using SPSS ver. 22.0 (IBM, Chicago, IL, United States). The results are presented as mean ± S.D., unless otherwise stated. After testing for the homogeneity of variance, statistical analysis was performed with a one-way ANOVA followed by the LSD post hoc test or unpaired Student’s t-test. A probability (p) of less than 0.05, 0.01, and 0.001 was considered to be statistically significant, highly significant, and extremely significant, respectively.

[2] = parameters: method as in Tornio et al. (2014); conditions: ref Tornio et al. (2014); cited from earlier work
[3] = cited from earlier work
[4] = for Imax,u, unbound steady-state plasma peak concentration: fu×I1
OATP1B1 [5] = conditions: ref Tamraz et al. (2013), cited from earlier work
OATP1B1 [6] = molecular target: T1, OATP1B1 (Homo sapiens, UniProt Q9Y6L6); experiment: cell-based; conditions: 100 μM
T1 sequence (Q9Y6L6 1-691): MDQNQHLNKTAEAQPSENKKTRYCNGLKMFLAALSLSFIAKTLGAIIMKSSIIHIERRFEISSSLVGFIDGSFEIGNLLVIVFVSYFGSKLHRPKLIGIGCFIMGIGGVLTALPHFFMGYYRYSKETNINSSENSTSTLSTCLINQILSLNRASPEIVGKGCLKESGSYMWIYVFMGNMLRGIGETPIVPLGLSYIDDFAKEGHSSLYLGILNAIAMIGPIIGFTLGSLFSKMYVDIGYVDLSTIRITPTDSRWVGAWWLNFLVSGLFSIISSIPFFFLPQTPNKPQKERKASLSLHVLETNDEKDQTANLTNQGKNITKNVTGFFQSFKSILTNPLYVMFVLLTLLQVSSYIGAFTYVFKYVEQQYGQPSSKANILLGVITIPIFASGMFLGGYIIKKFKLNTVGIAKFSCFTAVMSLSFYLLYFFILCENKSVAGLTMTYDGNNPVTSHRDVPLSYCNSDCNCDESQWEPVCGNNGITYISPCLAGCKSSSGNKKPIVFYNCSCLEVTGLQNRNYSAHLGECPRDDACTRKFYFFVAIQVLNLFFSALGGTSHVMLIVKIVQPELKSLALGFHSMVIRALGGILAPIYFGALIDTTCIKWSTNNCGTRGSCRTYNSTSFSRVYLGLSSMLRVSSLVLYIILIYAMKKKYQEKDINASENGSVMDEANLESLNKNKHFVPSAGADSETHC
Protocol: (§2) The OATP1B1, OATP1B3, and mock cells were cultured in the DMEM medium containing 10% fetal bovine serum, penicillin–streptomycin solution (100 U/mL and 0.1 mg/ml), and 0.5 mg/ml geneticin at 37°C in the presence of 5% CO2. The cells were seeded in a 24-well plate at a density of 4×10^5 cells/well and grown for 80–90% confluence. […] After washing the cells three times with transporter buffer at 4°C, the cells were lysed with liquid nitrogen. The lysates were precipitated with methanol and centrifuged at 12,000 rpm at 4°C for 5 min. The supernatant was analyzed by LC-MS/MS. Protein concentration was determined using the Pierce® BCA Protein Assay Kit. All experiments were performed in triplicate.
as §1

OATP1B3 = molecular target: T2, OATP1B3 (Homo sapiens, UniProt Q9NPD5); experiment: cell-based; conditions: 100 μM
T2 sequence (Q9NPD5 1-702): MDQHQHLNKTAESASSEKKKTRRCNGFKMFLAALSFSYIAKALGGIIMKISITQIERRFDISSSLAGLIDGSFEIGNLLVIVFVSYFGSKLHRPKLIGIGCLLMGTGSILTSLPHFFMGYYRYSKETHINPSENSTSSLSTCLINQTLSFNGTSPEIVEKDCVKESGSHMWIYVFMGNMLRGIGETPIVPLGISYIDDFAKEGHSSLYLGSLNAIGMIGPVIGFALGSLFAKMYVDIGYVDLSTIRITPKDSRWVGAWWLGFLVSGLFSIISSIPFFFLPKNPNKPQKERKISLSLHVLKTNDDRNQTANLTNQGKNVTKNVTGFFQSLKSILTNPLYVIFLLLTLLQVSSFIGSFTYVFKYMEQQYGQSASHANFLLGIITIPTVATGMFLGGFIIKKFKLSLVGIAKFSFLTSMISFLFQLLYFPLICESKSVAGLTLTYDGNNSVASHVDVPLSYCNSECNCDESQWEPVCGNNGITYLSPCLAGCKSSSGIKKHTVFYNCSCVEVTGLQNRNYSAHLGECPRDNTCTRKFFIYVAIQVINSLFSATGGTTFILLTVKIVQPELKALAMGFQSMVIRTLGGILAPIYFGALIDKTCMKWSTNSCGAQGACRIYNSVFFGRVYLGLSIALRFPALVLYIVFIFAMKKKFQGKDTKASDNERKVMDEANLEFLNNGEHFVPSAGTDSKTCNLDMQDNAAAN
Protocol: as §2, §1

[7] = tested on: human primary hepatocytes; experiment: Cytotoxicity (MTT, AST, LDH) in cryopreserved human hepatocytes; type: cell-based; conditions: 24 and 96 h incubation
Protocol: Cytotoxicity was determined with MTT assay in cryopreserved human hepatocytes. Thawing and plating of cryopreserved hepatocytes were carried out according to the manufacturer’s protocol. […] 11 μL of 5 mg/ml MTT was added to each well of the plate, and then the plate was incubated at 37°C for 3–4 h. After the medium was aspirated, 150 μL of DMSO was added to dissolve the formazan. The absorbance at 570 nm was measured and corrected for background absorption at 690 nm using a SpectraMax® i3 plate reader (Molecular Devices, Silicon Valley, CA, United States). AST and LDH levels in the medium of parallel processed plates were measured by commercially available assay kits. […] All experiments were performed in triplicate.

[8] = human; ref Ayalasomayajula et al., 2007; Itkonen et al., 2015; cited from earlier work
[9] = substrate cerivastatin, read-out: IC50 OTAP1B1 (cerivastatin, CER, as substrate)
[10] = substrate estrone sulfate, read-out: IC50 OTAP1B1 (estrone sulfate, ES, as substrate)

O=C(O)[C@H](c1ccccc1Cl)N1CCc2sccc2C1 [CPC, clopidogrel carboxylic acid]
AUC0–12h ([1]; Group I: single i.v. RSV 5 mg/kg + multiple p.o. CP 27 mg/kg): 299,764 ± 153,504.1 ng×h/mL | AUC0–12h ([1]; Group III: single p.o. RSV 5 mg/kg + multiple p.o. CP 27 mg/kg): 230,181 ± 109,005.9 ng×h/mL | Plasma exposure ([1]; rats, at 12 h post-dose): remains high | fu, fraction unbound in human plasma [2]: 0.06 [Tornio et al. (2014)] | Elimination half-life ([3]; ref Sanofi-Aventis, 2011): 8 h

COC(=O)[C@H](c1ccccc1Cl)N1CCC2SC(=O)C=C2C1 (stereo partly drawn) [2-Oxo clopidogrel, 2-oxo clopidogrel]
I1, peak plasma concentration at steady state ([4]; 75 mg CP, calculated from I1 at 300 mg assuming linear pharmacokinetics): 0.004 µM | Imax,u, unbound steady-state plasma peak concentration ([4]; 75 mg CP): 0.00008 µM | Imax,u, unbound steady-state plasma peak concentration ([4]; 300 mg CP): 0.0003 µM | pIC50 (OATP1B1 [5]; [9]): 5.09 | pIC50 (OATP1B1 [5]; [10]): 5.05 | fu, fraction unbound in human plasma [2]: 0.02 [Tornio et al. (2014)] | I1, peak plasma concentration at steady state ([3]; 300 mg CP, ref Kim et al. (2016)): 0.016 [Kim et al. (2016)] μM

CO[C@H]1/C=C/O[C@@]2(C)Oc3c(C)c(O)c4c(O)c(c(/C=N/N5CCN(C)CC5)c(O)c4c3C2=O)NC(=O)/C(C)=C\C=C\[C@H](C)[C@H](O)[C@@H](C)[C@@H](O)[C@@H](C)[C@H](OC(C)=O)[C@@H]1C [rifampin]
Inhibition of RSV uptake by OATP1B1 cells (positive control) (OATP1B1 [6]): significantly inhibited | Inhibition of RSV uptake by OATP1B3 cells (positive control) (OATP1B3): significantly inhibited

CC/C(=C(\c1ccccc1)c1ccc(OCCN(C)C)cc1)c1ccccc1 [tamoxifen]
Cytotoxicity (MTT) [7]: Dose-dependent cytotoxicity

O=C(O)C[C@H](O)C[C@H](O)/C=C/c1c(C2CC2)nc2ccccc2c1-c1ccc(F)cc1 [pitavastatin]
Effect of concomitant CP on plasma concentration of the statin [8]: did not change

CC(C)n1c(/C=C/C(O)CC(O)CC(=O)O)c(-c2ccc(F)cc2)c2ccccc21 (stereo not drawn) [fluvastatin]
Effect of concomitant CP on plasma concentration of the statin [8]: did not change

O=C(O)[C@H]1O[C@@H](OC(=O)[C@H](c2ccccc2Cl)N2CCc3sccc3C2)[C@H](O)[C@@H](O)[C@@H]1O [Clopidogrel acyl glucuronide, clopidogrel acyl-β-D-glucuronide]
Imax,u, unbound steady-state plasma peak concentration ([4]; 75 mg CP): 0.172 µM | Imax,u, unbound steady-state plasma peak concentration ([4]; 300 mg CP): 0.477 µM | pIC50 (OATP1B1 [5]; [9]): 4.96 | pIC50 (OATP1B1 [5]; [10]): 4.47 | fu, fraction unbound in human plasma [2]: 0.1 [Tornio et al. (2014)] | I1, peak plasma concentration at steady state ([3]; 75 mg CP, ref Itkonen et al. (2015)): 1.72 [Itkonen et al. (2015)] μM | I1, peak plasma concentration at steady state ([3]; 300 mg CP, ref Itkonen et al. (2015)): 4.77 [Itkonen et al. (2015)] μM
